# Experimental data taken from publication PMC12741935 (Alzheimer's & Dementia, 2025).
# Like-named read-outs stand apart in the source and are kept apart here.
# Columns and labels:
# Assay type in all cases: in vivo
# [1] = tested on: NfL, Aβ40, Aβ42; test: Plasma NfL and plasma/brain Aβ40, Aβ42 ELISA in chronically treated 5xFAD mice; conditions: chronic 100 mg/kg BID PO
# Protocol: V-PLEX Aβ Peptide Panel 1 (4G8) Kit (Meso Scale Diagnostics, LLC #[…]) was used for Aβ40/Aβ42 detection and S-PLEX Neurofilament L Kit (Meso Scale Diagnostics, LLC # […]) was used for NfL analysis, according to the manufacturer's protocols. […] The supernatant recovered was the DEA soluble fraction containing the soluble Aβ isoforms. […] For ELISA, the DEA-soluble fraction was diluted at 10 times and 40 times and the insoluble fraction was diluted at 40 times and 300 times. The assay plates were read by MESO […] plate reader and analyzed using Discovery Workbench Software (MesoScale Discovery). All samples were run in duplicate and averaged for analysis. Brain concentrations of the soluble and insoluble Aβ were normalized to total protein. All samples from a single plasma collection timepoint were run together on the appropriate MSD plate with the kit provided calibration standards.
# [2] = Plasma and brain NVS-PAK1-1 concentrations in 5xFAD mice; conditions: for concentration at 4 h: mouse, po, 100 mg/kg, 4 h after final dose
# Protocol: Serial blood was collected from n = 3 per treatment group at 0.5, 1, 2, and 4 hours post dose; with terminal blood and brain collected at 4 hours post dose. A staggered cohort of n = 3 per treatment group were assigned to serial blood collections at 0.5, 1, 2, and 8 hours post dose with terminal blood and brain collected at 4 and 24 hours post dose. Informed by exposure data from the initial PK/PD study, a subsequent chronic PK/PD study was designed to evaluate twice daily treatment of 100 mg/kg (PO) in female and male 5xFAD mice compared to age‐ and sex‐matched vehicle‐treated 5xFAD and vehicle‐treated WT littermate controls (Table S2 in supporting information). Terminal blood and brain was collected at 4 hours after the final dose. […] All in vivo target engagement and PK/PD studies were conducted under blinded conditions for age, genotype, and treatment, and the blind was maintained until after analyses were conducted.
# Drug concentrations were prepared immediately before dosing each day. The dose volume was delivered at 10 mL/kg based on each subject's daily weight collected just prior to the morning dose and administered via PO. For the chronic PD study, twice daily dosing (BID) was conducted between 7:00 and 9:00 am each morning and 3:00 to 5:00 pm each evening with the same day's formulation stored at 4°C between dosing intervals.
# For serial blood sampling, 50 µL of blood was collected via the tail tip route into heparin‐coated glass capillary tubes (Drummond scientific # 1‐000‐7500‐C/5) in non‐anesthetized mice. For all terminal timepoints, tissue collection was conducted at 4 or 24 hours post dose for acute studies (Tables S1–S2) and 4 hours after the final dose administrated for chronic studies. Mice were anesthetized with isoflurane to the surgical plane of anesthesia. After decapitation, trunk blood was collected into heparin‐coated tubes for terminal PK analysis with the remaining trunk blood decanted into EDTA‐coated tubes for PD analysis. Blood was kept on ice until centrifugation (typically 20–60 minutes post collection), then centrifuged at 19745 g for 10 minutes at 4°C for PK samples and 20 minutes for PD samples (e.g., plasma Aβ40, Aβ42, neurofilament light chain [NfL]), followed by storage at −80°C until analysis. The brain was quickly removed from the skull, briefly rinsed in cold PBS, and divided sagittally at the midline into left and right hemispheres. The left hemisphere without cerebellum was quickly chopped and mixed into three equally aliquoted mixed parts then placed into three cold cryotubes. Cryotubes were immediately snap frozen on dry ice and stored at −80°C until analysis. The right hemisphere was maintained intact and immediately placed on dry ice and stored at −80°C until shipped to Stanford University for Golgi staining and morphological analyses.
# For plasma samples, three volumes of acetonitrile containing internal standard was added to one volume of plasma, and centrifuged at 3000 g for 10 minute; then, the supernatant was removed and analyzed by LC‐MS/MS. Calibration standards and quality controls were prepared from a 1 mg/mL stock solution and subsequently a series of working solutions in methanol:water (1:1, v/v) that are spiked into blank plasma to yield a series of calibration standard samples in the range of 1 ng/mL to 10 µg/mL and QC samples at three concentration levels (low, middle, and high). All plasma samples were treated identically to the calibration standards and QC samples. For analysis of brain, one third of the left mixed‐chopped hemisphere was homogenized in three volumes of PBS buffer (pH 7.4; v/w = 3/1). Subsequently, three volumes of acetonitrile‐containing internal standard was added to one volume of each tissue homogenate, and the mixture was vortexed, centrifuged at 3000 g for 10 minutes, and supernatants were used for LC‐MS/MS.
# [3] = Adverse event observation in CD-1 PK study; conditions: 10 mg/kg IP, CD-1 mice
# Protocol: The dose volume was 10 mL/kg.
smiles,measurement,setting,value
"CC(C)NC(=O)N1CC[C@H](NC2=Nc3cc(F)ccc3N(CC(F)F)c3ccc(Cl)cc32)C1 [NVS‐PAK1‐1, (S)‐3‐([2‐chloro‐5‐(2,2‐difluoroethyl)‐8‐fluoro‐5H‐dibenzo[b,e][1,4]diazepin‐11‐yl]amino)‐N‐isopropylpyrrolidine‐1‐carboxamide]","brain amyloid accumulation, soluble (DEA) and insoluble (FA) fractions",[1]; 5xFAD,mirrored Aβ plasma values
same,plasma NfL,"[1]; young, aged, male, or female 5xFAD cohorts",did not significantly lower
same,concentration at 4 h,"[2]; female, 5xFAD, brain, aged 5xFAD females, 100 mg/kg BID PO 31 days, read-out: brain concentration",58.3 ± 26.1 ng/g
same,concentration at 4 h,"[2]; female, 5xFAD, brain, young 5xFAD females, 100 mg/kg BID PO 12 weeks, read-out: mean brain concentration",44.9 ± 14.1 ng/g
same,concentration at 4 h,"[2]; female, 5xFAD, plasma, aged 5xFAD females, 100 mg/kg BID PO 31 days, read-out: plasma concentration",354 ± 138 ng/mL
same,concentration at 4 h,"[2]; female, 5xFAD, plasma, young 5xFAD females, 100 mg/kg BID PO 12 weeks, read-out: average plasma concentration",324 ± 104 ng/mL
same,concentration at 4 h,"[2]; male, 5xFAD, brain, aged 5xFAD males, 100 mg/kg BID PO 31 days, read-out: brain concentration",49.1 ± 17.6 ng/g
same,concentration at 4 h,"[2]; male, 5xFAD, brain, young 5xFAD males, 100 mg/kg BID PO 12 weeks, read-out: mean brain concentration",98.5 ± 34.4 ng/g
same,concentration at 4 h,"[2]; male, 5xFAD, plasma, aged 5xFAD males, 100 mg/kg BID PO 31 days, read-out: plasma concentration",140 ± 27.9 ng/mL
same,concentration at 4 h,"[2]; male, 5xFAD, plasma, young 5xFAD males, 100 mg/kg BID PO 12 weeks, read-out: average plasma concentration",309 ± 104 ng/mL
same,levels in brain or plasma,"[2]; single PO dose 100 mg/kg, 24 hours post administration, 5xFAD",lack of detectable levels
same,brain concentration,"[2]; single PO dose 10 or 50 mg/kg, 24 hours post dose, aged 5xFAD",BLOQ
same,adverse events,[3],No adverse events were observed
